Assay results as given in patent publication US6329137A (priority 2000, dated 2001).
Like-named read-outs stand apart in the source and are kept apart here.

Experiments:
[1] = system: PTPs (PTP1B-FL, CD45-cat and CD45-FL); format: cell-based
[2] = system: recombinant PTP1B; details: oxidizing its catalytic site cysteine; cited from earlier work
[3] = system: CD45; format: cell-based
[4] = biological target: PTP1B-FL (Homo sapiens, UniProt P18031); assay: cell-based
[5] = system: CD45-cat; format: cell-based; details: infected sf9 cells, 10 mM pNPP
[6] = system: background phosphatases in mock-infected sf9 cells; format: cell-based, fall armyworm Spodoptera; details: for effect on background phosphatases: infected sf9 cells, 10 mM pNPP
[7] = system: PTP; details: cited from earlier work

Chain of PTP1B-FL (P18031 whole entry): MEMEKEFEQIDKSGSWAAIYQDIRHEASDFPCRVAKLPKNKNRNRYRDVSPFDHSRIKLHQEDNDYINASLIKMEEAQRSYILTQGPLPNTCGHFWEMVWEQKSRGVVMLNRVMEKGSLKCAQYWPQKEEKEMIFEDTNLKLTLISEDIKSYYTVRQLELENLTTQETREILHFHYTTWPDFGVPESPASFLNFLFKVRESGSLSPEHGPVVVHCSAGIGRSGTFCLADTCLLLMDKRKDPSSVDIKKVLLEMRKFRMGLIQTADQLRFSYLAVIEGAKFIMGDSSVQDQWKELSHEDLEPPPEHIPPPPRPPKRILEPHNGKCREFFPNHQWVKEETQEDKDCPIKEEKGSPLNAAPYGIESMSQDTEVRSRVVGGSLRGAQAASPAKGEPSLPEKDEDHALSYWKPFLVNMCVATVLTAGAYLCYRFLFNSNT

In the case of OO [hydrogen peroxide], the “potency and selectivity in words” value ([1]; intact sf9 cells, 10 mM pNPP) is listed as “limited potency and selectivity”, the IC50 ([1]; read-out: IC50 values in the range of) is listed as 7 to 16 µM and the “inactivation of recombinant PTP1B in vitro” value [2] is listed as “inactivate recombinant PTP1B in vitro”. The IC50 ([3]; read-out: IC50 range) was 10 to 15 µM and the IC50 [4] was 10 to 15 µM.
In the case of C=C1[C@@H](O)[C@@H]2O[C@]3(CC[C@H](/C=C/[C@@H](C)[C@@H]4CC(C)=C[C@@]5(O[C@H](C[C@@](C)(O)C(=O)O)CC[C@H]5O)O4)O3)CC[C@H]2O[C@@H]1[C@@H](O)C[C@H](C)[C@H]1O[C@@]2(CCCCO2)CC[C@H]1C [okadaic acid], the “effect on pNPP hydrolysis” value [1] is reported as “had no effect”, the “effect on CD45-cat phosphatase” value ([5]; okadaic acid at 6.7 μM) is reported as “Neither ouabain at 1 mM or okadaic acid at 6.7 μM had any effect” and the “effect on background phosphatases” value ([6]; okadaic acid at 6.7 μM) is reported as “Neither ouabain at 1 mM or okadaic acid at 6.7 μM had any effect”.
In the case of [Na+].[Na+].[Na+].[O]=[V]([O-])([O-])[O-] [vanadate, sodium orthovanadate], the IC50 [6] is given as 1.6 µM and the “mode of binding at active site” value [7] is given as “competitively and reversibly bound at the active site”.
In the case of C[C@@H]1O[C@@H](O[C@H]2C[C@@H](O)[C@]3(CO)[C@H]4[C@H](O)C[C@]5(C)[C@@H](C6=CC(=O)OC6)CC[C@]5(O)[C@@H]4CC[C@]3(O)C2)[C@H](O)[C@H](O)[C@H]1O [ouabain], the “inhibition of CD45 expressing cells” value [3] is reported as “no inhibition up to 1 mM”, the “effect on CD45-cat phosphatase” value ([5]; ouabain at 1 mM) is reported as “Neither ouabain at 1 mM or okadaic acid at 6.7 μM had any effect” and the “inhibition of background infected cells” value [6] is reported as “no inhibition up to 1 mM”. The “effect on background phosphatases” value ([6]; ouabain at 1 mM) was “Neither ouabain at 1 mM or okadaic acid at 6.7 μM had any effect”.
